Assays:
[1] = molecular target: T1, Bromodomain testis-specific protein (Homo sapiens, UniProt Q58F21); assay: Inhibition of recombinant human BRDT-2 (250 to 382 residues) expressed in bacterial expression system by bromoscan assay
[2] = molecular target: T2, Bromodomain-containing protein 4 (Homo sapiens, UniProt O60885); assay: Binding affinity to BRD4-T (unknown origin)
[3] = Metabolic stability in pooled human liver microsomes assessed as half life; format: ADME, Microsome; conditions: for t1/2: microsomes; for half-life: pooled human liver microsomes
[4] = Metabolic stability in pooled mouse liver microsomes assessed as half life; format: ADME, Microsome; conditions: for t1/2: microsomes; for half-life: pooled mouse liver microsomes
[5] = molecular target: T2, Bromodomain-containing protein 4; assay: Inhibition of recombinant human BRD4-1 (44 to 168 residues) expressed in bacterial expression system by bromoscan assay
[6] = molecular target: T1, Bromodomain testis-specific protein; assay: Inhibition of recombinant human BRDT-1 (21 to 137 residues) expressed in bacterial expression system by bromoscan assay
[7] = molecular target: T2, Bromodomain-containing protein 4; assay: Inhibition of recombinant human BRD4-2 (333 to 460 residues) expressed in bacterial expression system by bromoscan assay
[8] = molecular target: T1, Bromodomain testis-specific protein; assay: Binding affinity to N-terminal hexa-histidine tagged BRDT-T (2 to 416 residues) (unknown origin) expressed in Escherichia coli BL21(DE3) cells
[9] = system: MM1.S; assay: Growth inhibition of human MM1.S cells incubated for 72 hrs by CellTiter-Blue assay; format: functional, cell-based
[10] = Permeability in MDCK-MDR1 cells; format: ADME, cell-based, Canis lupus familiaris; conditions: dog; for Papp: MDCK-MDR1, read-out: permeability
[11] = molecular target: T2, Bromodomain-containing protein 4; assay: Inhibition of BRD4 in human MM1.S cells assessed as reduction in c-MYC level after 6 hrs by Western blot analysis; format: cell-based
[12] = organism: Homo sapiens; assay: Selectivity ratio of Kd for BRD4 (unknown origin) to Kd for BRDT (unknown origin)

Row | SMILES | Kd [1] [nM] | Kd [2] [nM] | t1/2 [3] [min] | t1/2 [4] [min] | Kd [5] [nM] | Kd [6] [nM] | Kd [7] [nM] | Kd [8] [nM] | IC50 [9] [nM] | Papp [10] [×10⁻⁶ cm/s] | half-life [3] [min] | half-life [4] [min] | IC50 [11] [nM] | Selectivity ratio [12] | permeability ([10]; mdck-mdr1)
1 | Cc1cnc(Nc2ccc(C(=O)NC3CCN(C(=O)CCOCCOCCOCCOCCC(=O)N4CCC(NC(=O)c5ccc(Nc6ncc(C)c(Nc7ccc(Cl)c(NS(=O)(=O)C(C)(C)C)c7)n6)cc5F)CC4)CC3)c(F)c2)nc1Nc1ccc(Cl)c(NS(=O)(=O)C(C)(C)C)c1 | 1.7 | 2.8 | 5.6 | 4.1 | 6.4 | 0.92 | 3 | 1.55 | 34 | – | – | – | – | – | –
2 | CCS(=O)(=O)Nc1ccc(OCCOCCOCCOCCOc2ccc(NS(=O)(=O)CC)cc2-c2cn(C)c(=O)c3ccccc23)c(-c2cn(C)c(=O)c3ccccc23)c1 | 5.5 | 0.29 | – | – | 0.095 | 0.089 | 0.32 | 0.058 | – | 15 | 315 | 11 | – | – | –
3 | Cc1cnc(Nc2ccc(C(=O)NC3CCN(C(=O)CCOCCOCCOCCOCCOCCC(=O)N4CCC(NC(=O)c5ccc(Nc6ncc(C)c(Nc7ccc(Cl)c(NS(=O)(=O)C(C)(C)C)c7)n6)cc5F)CC4)CC3)c(F)c2)nc1Nc1ccc(Cl)c(NS(=O)(=O)C(C)(C)C)c1 | 2.2 | 1.6 | 10 | 30 | 4.6 | 0.6 | 1.5 | 0.8 | 30 | – | – | – | – | – | –
4 | CCS(=O)(=O)Nc1cccc(-c2cn(C)c(=O)c3ccccc23)c1 | – | – | – | – | – | 77 | – | – | – | 0.13 | < 2.3 | < 2.3 | – | – | –
5 | Cc1cnc(Nc2ccc(C(=O)NC3CCN(C)CC3)c(F)c2)nc1Nc1ccc(Cl)c(NS(=O)(=O)C(C)(C)C)c1 | 25 | 6.7 | – | – | – | 9.5 | 20 | 18 | 61 | – | – | – | – | – | –
6 | Cn1cc(-c2cccc(N3CCCC3=O)c2)c2ccccc2c1=O | – | – | – | – | 335 | 875 | – | – | 58 | – | – | – | > 1000 | – | –
7 | Cc1cnc(Nc2ccc(C(=O)NC3CCN(C(=O)COCCOCCOCC(=O)N4CCC(NC(=O)c5ccc(Nc6ncc(C)c(Nc7ccc(Cl)c(NS(=O)(=O)C(C)(C)C)c7)n6)cc5F)CC4)CC3)c(F)c2)nc1Nc1ccc(Cl)c(NS(=O)(=O)C(C)(C)C)c1 | 8.4 | 4.8 | – | – | 28 | 0.6 | 9.1 | 2.6 | 59 | – | – | – | – | – | –
8 | Cc1cnc(Nc2ccc(C(=O)NC3CCNCC3)c(F)c2)nc1Nc1cc(NS(=O)(=O)C(C)(C)C)cc(C(=O)NCCOCCOCCOCCC(=O)N2CCC(NC(=O)c3ccc(Nc4ncc(C)c(Nc5ccc(Cl)c(NS(=O)(=O)C(C)(C)C)c5)n4)cc3F)CC2)c1 | 3.1 | 1.7 | – | 55 | 6 | 0.16 | 3.2 | 1.3 | 1100 | – | 2.2 | – | – | 12 | –
9 | CCS(=O)(=O)Nc1ccc(Oc2ccc(Cl)cc2)c(-c2cn(C)c(=O)c3ccccc23)c1 | 12 | 2.3 | 299 | 74 | 3.6 | 5 | 3.7 | 6 | 8.5 | – | – | – | – | – | 2.7 10^-6 cm/s
10 | Cc1cnc(Nc2ccc(C(=O)NC3CCN(C(=O)COCCOCC(=O)N4CCC(NC(=O)c5ccc(Nc6ncc(C)c(Nc7ccc(Cl)c(NS(=O)(=O)C(C)(C)C)c7)n6)cc5F)CC4)CC3)c(F)c2)nc1Nc1ccc(Cl)c(NS(=O)(=O)C(C)(C)C)c1 | 3.5 | 3.6 | – | – | 4 | 0.84 | 3.1 | 0.59 | 44 | – | – | – | – | – | –

From ChEMBL document CHEMBL5120946, “Bivalent BET Bromodomain Inhibitors Confer Increased Potency and Selectivity for BRDT via Protein Conformational Plasticity” (J Med Chem, 2022)
